Assays:
C. albicans DIS = assay: Killing assay in whole human saliva; conditions: saliva, no peptide
Procedure: FIG. 1. Candidacidal activity of MUC7 12-mer-L, MUC7 12-mer-D, Hsn5 12-mer, and Magainin-II in whole human saliva (WHS). Each peptide at final concentration of 25, 50, and 100 μM was incubated with C. albicans (DIS isolate at 1×10^5 cells/ml) and 20 μl of clarified or unclarified saliva (SL; hatched bars), saliva containing Protease inhibitor cocktail (PIC) (SL+PIC; filled bars), or saliva containing ethylenediamine tetraacetic acid (EDTA) (SL+EDTA; clear bars) at 37° C. for 1.5 h. At the end of incubation, the samples were diluted 20-fold and aliquots plated on SDA. The colony forming units (CFU) were counted after 24 h of incubation. The loss of C. albicans viability was determined by the equation (1−CFU of the test group/CFU of the control group)×100%. The data represent three individual trials, and in each trial the sample was duplicated; the error bars represent standard deviation.
FIG. 4. […] Stimulated whole saliva was collected from 5 healthy subjects. Peptides (50 μM) were incubated with C. albicans cells (1×10^5) in the each individual saliva containing PIC (SL+PIC) at 37° C. for 1.5 hr and the loss of the cell viability was determined. Values represent the mean±S.D. (n=5).
Killing assays in saliva. Unclarified saliva (unstimulated whole saliva) was collected from five healthy individuals during the fasting. Clarified saliva was obtained by passing the unclarified saliva through the 0.2 μm pore size sterile syringe filter (VWR scientific products, West Chester, Pa.). Candidacidal activity assays were performed as described previously (4), except the phosphate buffer was substituted with saliva. […] Saliva without peptides was a blank control. After incubation at 37° C. for 1.5 h, the reactions were diluted 20-fold in PB and aliquots (50 μl, ˜120 cells) of each sample were plated on SDA. The plates were incubated at 37° C. for 1 day aerobically and the number of colony-forming units (CFUs) was counted. Percentage of killing was calculated as (1−amount of viable cells in the test group)/(amount of viable cells in the control group)×100%.

C. albicans strain DIS = format: in vivo, mice ICR strain
Procedure: A previously described protocol was adopted (14). Mice were immunosuppressed with two subcutaneous injections of prednisolone at a dose of 100 mg/kg body weight 1 day prior to and 3 days after the infection with C. albicans. Tetracycline hydrochloride in drinking water at a concentration of 0.83 mg/ml was given to mice beginning 1 day before infection. Mice were anesthetized by intramuscular injection with 60 μl of 2 mg/ml chlorpromazine chloride, using a dose of 10 mg/kg body weight of mice. While under anesthesia, a small cotton ball soaked in 0.1 ml aliquot of C. albicans cell suspension (2.5×10^6 cells) was used to swab the entire oral cavity of the anesthetized mice.
Visual evaluation was done by carefully extending the tongue of randomly picked mice using blunt-end forceps, while the mice were under isoflurane sedation. Presence of thick, white curd-like patches indicated candidal infection. At day 3 post-infection, all animals were examined for evidence oral candidal infection by microbiological evaluation. The entire oral cavity of anesthetized mice was swabbed using a sterile calcium alginate disposable swab (Fisher Scientific), dampened with sterile PBS. Cells were then released from the swab into 1 ml PBS. Serial 10-fold dilutions were plated on SDA plates supplemented with streptomycin (30 μg/ml). Plates were incubated for 24 h at 37° C. and yeast cell count expressed as log10 of cfu/ml.
Tongues from sacrificed animals were used for histological studies. They were fixed in 10% formalin and embedded in paraffin. Serial five-μm sections were cut from the paraffin block and stained with periodic acid-Schiff (PAS) reagent for detection of C. albicans.
Mice were randomly divided into various treatment groups with 8 mice per group. Antifungal agents were employed on an equimolar basis, and included amphotericin B (1.75%), clotrimazole (0.66%), MUC7 12-mer (RKSYKCLHKRCR—SEQ ID NO:1) (L; 3%), MUC7 12-mer (D; 3%), MUC7 12-mer (D; 3%) containing Na2EDTA (1 mM), MUC7 12-mer (L; 3%) containing protease inhibitor cocktail (PIC) (1%), and Hsn5 12-mer (AKRHHGYKRKFH—SEQ ID NO:2) (3%). They were all emulsified in Pluronic F127, (20% lipoil), a polymer of polyoxyethylene and polyoxypropylene (non-ionic surfactant). Animals were anesthetized using isoflurane; while sedated, about 30 to 40 μl of the antifungal emulsion was applied on the tongue and spread throughout oral cavity. The treated mice were under sedation for additional 5 min under isoflurane. Animals were not given access to food and water for 1 h following the application.
Fungal burden was re-evaluated quantitatively after 3 and 6 days of treatment, using the same technique as the one used for initial evaluation. Randomly picked mice from each group was subjected to histopathological evaluation, after 6 days of treatment. Blood from randomly sacrificed mice from each treatment group was analyzed for any changes in the serum liver (AST, ALT, ALP etc.) and kidney enzymes (BUN, glucose, creatinine etc) levels.
Statistical analysis was performed using a significance level set at 0.05 (α) and a significant group size (n=8). Initial infection and antifungal treatment efficacy were determined using analysis of variance (ANOVA), expressed as log10 cfu, and Scheffe's multiple comparison test was used to determine the differences between various treatment groups.

[1] = Experimental study I, topical oral application

| SMILES | effect of additive alone on C. albicans cell viability (C. albicans DIS) | Log10 cfu/ml (Mean + S.D.), Initial infection (C. albicans strain DIS; Experimental study I, day 3 post-infection, before treatment (baseline)) | Log10 cfu/ml (Mean + S.D.), 3-days treatment (C. albicans strain DIS; [1]) | Log10 cfu/ml (Mean + S.D.), 6-days treatment (C. albicans strain DIS; [1]) | histopathological finding in tongue sections (C. albicans, PAS staining) (C. albicans strain DIS; end of treatment) |
| --- | --- | --- | --- | --- | --- |
| O=C(O)CN(CCN(CC(=O)O)CC(=O)O)CC(=O)O [EDTA, ethylenediamine tetraacetic acid] | very little or no effect | – | – | – | – |
| Clc1ccccc1C(c1ccccc1)(c1ccccc1)n1ccnc1 [Clotrimazole, 1-[o-chloro-a,a-diphenylbenzyl]-imidazole] | – | 4.50 ± 0.20 Log10 cfu/ml | 1.58 ± 1.36 Log10 cfu/ml | 0.53 ± 0.99 Log10 cfu/ml | healthy tissue and absence of visible microorganisms |

From patent US7271239B2, “D-isomers of antimicrobial peptide” (The Research Foundation of State University of New York, priority 2004, dated 2007)
